This passage reports pest or weed control results from patent US20120100990A1, “4 -AMINOPICOLINATES AND THEIR USE AS HERBICIDES” (SYNGENTA CROP PROTECTION LLC, priority 2009, published 2012).

The structures appear in SMILES notation.

What all share (type): in vivo
Assay [1] concerns Echinochloa crus-galli (ECHCG). Kind of assay: Post-emergence biological efficacy, glasshouse pot test. Conditions: 312 h, 1,000 g/ha, evaluated after 13 days, 100=total damage, 0=no damage, read-out: Percentage damage caused to weed species, post-emergence, ECHCG. On the procedure:
(§1) Seeds of Alopecurus myosuroides (ALOMY), Setaria faberi (SETFA), Echinochloa crus-galli (ECHCG), Solanum nigrum (SOLNI), Amaranthus retroflexus (AMARE) and Ipomea hederaceae (IPOHE) were sown in standard soil in pots. After cultivation for 8 days under controlled conditions in a glasshouse (at 24/16° C., day/night; 14 hours light; 65% humidity), the plants were sprayed with an aqueous spray solution derived from the formulation of the technical active ingredient in acetone/water (50:50) solution containing 0.5% Tween 20 (polyoxyethylene sorbitan monolaurate, CAS RN 9005-64-5) to give a final dose of 1000 or 250 g/ha of test compound. The test plants were then grown on under controlled conditions in a glasshouse (at 24/16° C., day/night; 14 hours light; 65% humidity) and watered twice daily. After 13 days the test was evaluated (100=total damage to plant; 0=no damage to plant).

The test system of assay [2] is Amaranthus retroflexus (AMARE). The assay is described as above. Conditions: 312 h, 1,000 g/ha, evaluated after 13 days, 100=total damage, 0=no damage, read-out: Percentage damage caused to weed species, post-emergence, AMARE. On the procedure: as §1
The test system of assay [3] is Setaria faberi (SETFA). Described as above. As to conditions: 312 h, 1,000 g/ha, evaluated after 13 days, 100=total damage, 0=no damage, read-out: Percentage damage caused to weed species, post-emergence, SETFA. As to the method: as §1
Assay [4] has as its system Alopecurus myosuroides (ALOMY). The description is as above. As to conditions: 312 h, 1,000 g/ha, evaluated after 13 days, 100=total damage, 0=no damage, read-out: Percentage damage caused to weed species, post-emergence, ALOMY. On the procedure: as §1
For assay [5], the system named is Ipomea hederaceae (IPOHE). Described as above. Conditions: Ipomoea hederacea, 312 h, 1,000 g/ha, evaluated after 13 days, 100=total damage, 0=no damage, read-out: Percentage damage caused to weed species, post-emergence, IPOHE. As to the method: as §1
The subject of assay [6] is Solanum nigrum (SOLNI). The assay is described as above. As to conditions: 312 h, 1,000 g/ha, evaluated after 13 days, 100=total damage, 0=no damage, read-out: Percentage damage caused to weed species, post-emergence, SOLNI. On the procedure:
as §1

Assay [7] concerns Echinochloa crus-galli (ECHCG). Kind of assay: Pre-emergence biological efficacy, glasshouse pot test. As to conditions: 312 h, 1,000 g/ha, evaluated after 13 days, 100=total damage, 0=no damage, read-out: Percentage damage caused to weed species, pre-emergence, ECHCG. As to the method:
(§2) Seeds of Alopecurus myosuroides (ALOMY), Setaria faberi (SETFA), Echinochloa crus-galli (ECHCG), Solanum nigrum (SOLNI), Amaranthus retroflexus (AMARE) and Ipomea hederaceae (IPOHE) were sown in standard soil in pots. After cultivation for one day under controlled conditions in a glasshouse (at 24/16° C., day/night; 14 hours light; 65% humidity), the plants were sprayed with an aqueous spray solution derived from the formulation of the technical active ingredient in acetone/water (50:50) solution containing 0.5% Tween 20 (polyoxyethylene sorbitan monolaurate, CAS RN 9005-64-5) to give a final dose of 1000 or 250 g/ha of test compound. The test plants were then grown under controlled conditions in the glasshouse (at 24/16° C., day/night; 14 hours light; 65% humidity) and watered twice daily. After 13 days the test was evaluated (100=total damage to plant; 0=no damage to plant).

Assay [8] has as its system Amaranthus retroflexus (AMARE). The description is as above. Conditions: 312 h, 1,000 g/ha, evaluated after 13 days, 100=total damage, 0=no damage, read-out: Percentage damage caused to weed species, pre-emergence, AMARE. On the procedure:
as §2

Assay [9] relates to Setaria faberi (SETFA). The assay is described as above. As to conditions: 312 h, 1,000 g/ha, evaluated after 13 days, 100=total damage, 0=no damage, read-out: Percentage damage caused to weed species, pre-emergence, SETFA. As to the method:
as §2

Assay [10] has as its system Alopecurus myosuroides (ALOMY). The assay is described as above. Conditions: 312 h, 1,000 g/ha, evaluated after 13 days, 100=total damage, 0=no damage, read-out: Percentage damage caused to weed species, pre-emergence, ALOMY. As to the method:
as §2

Assay [11] deals with Ipomea hederaceae (IPOHE). Described as above. As to conditions: Ipomoea hederacea, 312 h, 1,000 g/ha, evaluated after 13 days, 100=total damage, 0=no damage, read-out: Percentage damage caused to weed species, pre-emergence, IPOHE. As to the method:
as §2

In assay [12] the test system is Solanum nigrum (SOLNI). Described as above. Conditions: 312 h, 1,000 g/ha, evaluated after 13 days, 100=total damage, 0=no damage, read-out: Percentage damage caused to weed species, pre-emergence, SOLNI. On the procedure:
as §2

For the molecule `C=Cc1c(NCc2c(Cl)cccc2Cl)cc(Cl)nc1C(=O)OC` [Compound 21-12, 6-Chloro-4-[(2,6-dichlorophenyl-methyl)-amino]-3-ethenyl-pyridine-2-carboxylic acid methyl ester], the pest or weed control at 1000 g/ha in assay [1] came to 10%; in [2] it was 100%; in the assay on Setaria faberi (SETFA) [3] it was 0%; in assay [4], 20%; in [5] it was 30%; in the assay with Solanum nigrum (SOLNI) [6] it was 80%. The pest or weed control at 1000 g/ha in assay [7] amounted to 0%; in [8], 100%; in the assay on Setaria faberi (SETFA) [9] it was 0%; in assay [10] it was 0%; in [11], 30%.

In the case of `COC(=O)c1nc(Cl)cc(NCc2ccncc2)c1Cl` [Compound 80-2, 3,6-Dichloro-4-(pyridin-4-ylmethylamino)-pyridine-2-carboxylic acid methyl ester], the pest or weed control at 1000 g/ha in assay [1] was 60%; in assay [2], 90%; in the assay with Setaria faberi (SETFA) [3], 50%; in assay [4], 40%; in assay [5], 70%; with Solanum nigrum (SOLNI) [6] it was 100%. The pest or weed control at 1000 g/ha in assay [7] is 20%; in assay [8] it was 100%; in the assay on Setaria faberi (SETFA) [9], 80%; in assay [10] it was 70%; in assay [11], 90%; with Solanum nigrum (SOLNI) [12], 100%.

Regarding `C=Cc1c(NCc2ccco2)cc(Cl)nc1C(=O)O` [Compound 26-11, 6-chloro-3-ethenyl-4-[(furan-2-ylmethyl)-amino]-pyridine-2-carboxylic acid], the pest or weed control at 1000 g/ha was 80% in [1]; 100% in assay [2]; 90% in the assay on Setaria faberi (SETFA) [3]; 80% in assay [4]; 80% in assay [5]; 100% in the assay on Solanum nigrum (SOLNI) [6]. For the same molecule, the pest or weed control at 1000 g/ha in assay [7] came out at 90%; in assay [8], 100%; in the assay on Setaria faberi (SETFA) [9] it was 100%; in assay [10] it was 100%; in assay [11], 100%; with Solanum nigrum (SOLNI) [12], 100%.

For the molecule `COC(=O)c1nc(Cl)cc(NCc2cccc(F)c2)c1Cl` [Compound 7-2, 3,6-Dichloro-4-[(3-fluorophenylmethyl)-amino]-pyridine-2-carboxylic acid methyl ester], the pest or weed control at 1000 g/ha in assay [1] came to 50%; in assay [2], 100%; with Setaria faberi (SETFA) [3], 90%; in assay [4] it was 50%; in assay [5], 80%; in the assay with Solanum nigrum (SOLNI) [6], 100%. Also, the pest or weed control at 1000 g/ha in [7] is 50%; in assay [8], 100%; in the assay on Setaria faberi (SETFA) [9], 80%; in [10], 50%; in assay [11], 100%; with Solanum nigrum (SOLNI) [12], 100%.

On to `C=Cc1c(NCc2ccccc2[N+](=O)[O-])cc(Cl)nc1C(=O)OC` [Compound 15-12, 6-Chloro-3-ethenyl-4-[(2-nitrophenylmeth-yl)-amino]-pyridine-2-carboxylic acid methyl ester], for which the pest or weed control at 1000 g/ha in [1] stood at 70%; in assay [2], 100%; in the assay with Setaria faberi (SETFA) [3], 100%; in assay [4], 80%; in assay [5], 60%; with Solanum nigrum (SOLNI) [6], 90%. Also, the pest or weed control at 1000 g/ha in assay [7] is 90%; in assay [8], 100%; with Setaria faberi (SETFA) [9], 80%; in assay [10] it was 70%; in assay [11] it was 100%; with Solanum nigrum (SOLNI) [12], 100%.

For the molecule `COC(=O)c1nc(Cl)cc(NC[C@@H]2CCCC[C@H]2O)c1Cl` [Compound 68-2, 3,6-Dichloro-pyridine-4-[trans-(2-hydroxycyclohexyl-methyl)-amino]-2-carboxylic acid methyl ester], the pest or weed control at 1000 g/ha in assay [1] stood at 20%; in assay [2] it was 100%; in the assay on Setaria faberi (SETFA) [3], 70%; in assay [4], 40%; in assay [5], 70%; in the assay on Solanum nigrum (SOLNI) [6], 100%. Moreover, the pest or weed control at 1000 g/ha in assay [7] turned out to be 0%; in assay [8], 100%; in the assay with Setaria faberi (SETFA) [9] it was 80%; in assay [10] it was 70%; in [11], 90%; in the assay with Solanum nigrum (SOLNI) [12], 100%.
